What was measured:
[1] = tested on: muscle strengths of the quadriceps femoris and the hamstrings; test: Promotion of muscle strengthening with no exercise load applied, three months; format: in vivo, human; details: month 3, no exercise load, 80% CO2 ten minutes at least once a week
Text: Thirteen subjects (all males, aged from 27 to 43) participated in the experiment. In each subjects, the absorption aid 4 of carbon dioxide described in Example 5 in Patent Document 7 (Japanese Patent Unexamined Publication No. 2004-517345) was given to one determined leg (hereinafter, referred to as a “treated leg”). The treated leg was covered with an 80 cm-long polypropylene bag type sealing enclosure member equipped with a check valve. Then, carbon dioxide was filled in the member from a carbon dioxide gas cylinder and stood still for ten minutes. The carbon dioxide concentration was set to 80% (800,000 ppm). The treatment was carried out at least once a week for three months. No treatment was given to the other leg (hereinafter, referred to as a “non-treated leg”). Before and three months after the experiment was started, the muscle strengths of the treated leg and the non-treated leg were measured (the muscle strengths of the quadriceps femoris and the hamstrings were measured by using MyoretRZ-450).

grip strength = test: Promotion of kaatsu training effect, grip strength; format: in vivo, human
Method: Two subjects participated in the experiment. The experiment was carried out according to Abe T. et al. (2006) Electromyographic responses of arm and chest muscle during bench press exercise with and without KAATSU. Int. J. Kaatsu Training Res. 2:15-18. The grip strengths of both hands of each subject were measured before the experiment was started. Next, the absorption aid 4 of carbon dioxide described in Example 5 in Patent Document 7 (Japanese Patent Unexamined Publication No. 2004-517345) was applied to the entire left arm of each subject, and the left arm was covered with an 80 cm-long polypropylene bag type sealing enclosure member equipped with a check valve. A cuff of blood pressure manometer was worn on the upper arm with the sealing enclosure member applied. Firstly, the upper arm was pressurized with a cuff pressure of 50 mmHg for 30 seconds. Next, the pressure was released once for 10 seconds, and then the upper arm was pressurized while gradually increasing the cuff pressure to 70 mmHg. When the cuff pressure reached 70 mmHg, the pressure was fixed. Then, carbon dioxide was filled in the sealing enclosure member from a carbon dioxide gas cylinder so as to inflate the sealing enclosure member. […]
Three days after the experiment, the grip strength of both hands of each subject was measured.

[2] = tested on: muscle strength of the quadriceps femoris and the hamstrings; test: Promotion of muscle strengthening by stretching exercise on isometric torque of legs, transdermal carbon dioxide absorption on treated leg; format: in vivo, human
Text: Eight subjects including two subjects who played sports three times or more a week (hereinafter, referred to as “athlete”) and six subjects who played sports two times or less a week (hereinafter, referred to as “non-athlete”) participated in the experiment. Each subject did warming-up by pedaling a gym bicycle for ten minutes. Next, each subject did a stretching exercise on isometric torque of the quadriceps femoris 300 times or more by using training machine MyoretRZ-450 (Kawasaki Heavy Industries, Ltd.). Thus, an exercise load was applied to the quadriceps femoris. Then, the muscle strength of the quadriceps femoris and the muscle strength of the hamstrings to which an exercise load was not applied were measured by using MyoretRZ-450.
After the training was completed, the carbon dioxide absorption aid 4 described in Example 5 in Patent Document 7 (Japanese Patent Unexamined Publication No. 2004-517345) was applied to one determined leg (hereinafter, referred to as a “treated leg”). The treated leg was covered with an 80 cm-long polypropylene bag type sealing enclosure member equipped with a check valve. Then, the member was filled with carbon dioxide from a carbon dioxide gas cylinder and stood still for ten minutes. The carbon dioxide concentration was set to 80% (800,000 ppm). No treatment was given to the other leg (hereinafter, referred to as a “non-treated leg”). The training was carried out only once, this time.
Each subject allowed the treated leg to absorb carbon dioxide for ten minutes once a day as mentioned above by using the carbon dioxide supplying means for muscle strengthening of the present invention (by using a carbon dioxide external administration device as the carbon dioxide supplying means). Thereafter, the muscle strength of the quadriceps femoris and the muscle strength of the hamstrings were measured by using MyoretRZ-450.
On day 4 and later after the experiment was started, neither absorption of carbon dioxide nor stretching exercise on isometric torque of the quadriceps femoris was carried out. On day 7 after the experiment was started, the muscle strengths of the quadriceps femoris and the hamstrings were measured by using MyoretRZ-450.

rat lower thigh muscle = test: Increase in amount of rat muscle with no exercise load applied, three months; format: in vivo, Wister rats
Text: Nine male Wister rats (5-week old at the time when the experiment was started) were used.
In the CO2 group, the hair was removed from the right and left lower thighs of six rats under anesthesia. Then, the absorption aid 4 of carbon dioxide described in Example 5 in Patent Document 7 (Japanese Patent Unexamined Publication
No. 2004-517345) was applied to only the right lower thigh (hereinafter, referred to as a “treated limb”). Next, the rat lower body was covered with a polyethylene bag type sealing enclosure member provided with a hole through which the left hind limb comes out so that only the right hind limb absorbs carbon dioxide. Then, carbon dioxide was filled in the sealing enclosure member by using a carbon dioxide gas cylinder so as to inflate the sealing enclosure member. In order to always secure a sufficient amount of carbon dioxide in the sealing enclosure member, carbon dioxide was added at any time, so that the sealing enclosure member was filled with carbon dioxide for ten minutes. The carbon dioxide concentration inside the sealing enclosure member was set to 100%. […]
Three months later, the rat body weights were measured and the muscle was collected from the right and left lower thighs. The muscle wet weight of the collected muscle was measured, followed by detecting growth a acceleration indicating proteins of muscle fibers, MyoD and Myogenin (see Atsuko HARA et al., “Expression of myosin heavy chain isoforms, myogenin and MyoD in the course of regeneration of skeletal muscle,” Journal of Health Sciences of Hiroshima University, Vol. 2 (1): 12-18, 2002), and IGF-IR [see Junichi SUZUKI et al., “Effect of endurance training with L-arginine supplementation on expression of IGF-1 receptor in rat skeletal muscles” Research for Winter Sports, (the Proceedings of Research and Education Center for Winter Sports, Hokkaido University of Education), Vol. 8 (1) 1-7, 2005], by Western blotting. The resultant bands were analyzed on the analysis software (NIH-Image) so as to quantify each growth acceleration indicating protein. […]

[3] = day 7, non-athletes, pre-ex defined as 100%
[4] = 100% CO2 ten minutes twice a week

In the case of `O=C=O` [carbon dioxide], the “muscle strengthening of the quadriceps femoris in the treated leg as compared with the non-treated leg” value ([1]; P=1%) is reported as “about 15%”, the “muscle strengthening of the hamstrings in the treated leg as compared with the non-treated leg” value ([1]; P=5%) is reported as “about 15%” and the “muscle strengthening rate (grip strength) compared with only pressurizing” value (grip strength; day 3 after kaatsu training, treated arm versus non-treated arm) is reported as “two-times”. For the same compound, the “muscle pain and fatigue accompanying kaatsu training” value (grip strength; left hand with carbon dioxide absorption versus only pressurizing and exercise) was “reduced”, the “blood pressure and heart rate of the subjects during the absorption of carbon dioxide” value ([2]; after exercise load, 80% CO2, ten minutes, treated leg) was “did not change” and the “muscle strengthening of the quadriceps femoris in the treated leg” value ([2]; day 7, all subjects, pre-ex defined as 100%, CO2 absorption stopped from day 4) was 20%. The “muscle strengthening of the hamstrings (no exercise load) in the treated leg” value ([2]; day 7, all subjects, pre-ex defined as 100%, significant at P=5%) was “about 15%”, the “muscle strengthening of the hamstrings (no exercise load) in the treated leg, non-athletes” value [2, 3] was “about 20%” and the “muscle strengthening of the quadriceps femoris in the treated leg, non-athletes” value [2, 3] was “about 30%”. For the same compound, the “muscle strengthening of the quadriceps femoris, treated leg compared with non-treated leg” value ([2]; days 2 to 4 of the experiment, CO2 ten minutes once a day) was “promoted”, the “recovery of the muscle strength of the quadriceps femoris, treated leg versus non-treated leg” value ([2]; post-CO2, day of exercise load, 80% CO2, ten minutes) was “faster” and the “muscle wet weight per body weight, CO2 group as compared with CONTROL group” value (rat lower thigh muscle; [4]) was “increase”. For the same compound, the “muscle wet weight, treated leg as compared with non-treated leg in the CO2 group” value (rat lower thigh muscle; [4]) was “remarkable increase” and the “amount of growth acceleration indicating protein (MyoD, Myogenin, IGF-IR) extracted from the muscle, CO2 group versus CONTROL group” value (rat lower thigh muscle; Western blotting) was “increased”.

From patent US20120093946A1, “USE OF CARBON DIOXIDE SUPPLYING MEANS FOR MUSCLE STRENGTHENING AND METHOD OF INCREASING CATTLE MEAT THEREBY” (priority 2007, published 2012)
